In a melting point compilation (Tetko et al.; mined from patent text by program, amines drawn as free bases though some values may be those of a salt):

Compound	melting point [°C]
CCCCCCCCCCCCCCCCNC(=O)c1cc(OCCN=C=S)c2ccccc2c1O	90 to 91
Cc1nc(Oc2ccc(F)cc2)cc(Oc2ccc(F)cc2)n1	93 to 97
NS(=O)(=O)c1ccc(-n2nc(CCCNC(=O)Nc3ccc(OC(F)(F)F)cc3)cc2-c2ccccc2)cc1	206 to 207
CC(=O)C1CCC2C3CCC4CC(OS(C)(=O)=O)CCC4(C)C3C(OC(=O)CI)CC12C (centres undefined)	142 to 143
C[C@H](NC(=O)COc1ccc2c(-c3ccccc3)nn(C)c2n1)c1ccccc1	55 to 56
CSc1nccc(-c2cn(Cc3ccccc3C#N)c(=O)n2-c2ccc(F)cc2)n1	141 to 142
CCCn1c(SC)nc2sccc2c1=O	94 to 96
Nc1nc(F)cc(OC(F)(F)F)n1	86 to 89
COc1ccccc1S(=O)(=O)c1ccc2c(c1)[C@@H](N1CCCC1=O)[C@H](O)C(C)(C)O2 (relative stereo)	196 to 198
CCCCCCCCCC(Oc1ccc(C2=CCCCCC2)cc1)C(=O)O (centres undefined)	79 to 81
CC1(C)CC(=O)NC2CCCCC2N1CCO (centres undefined)	154 to 156
CS(=O)(=O)c1ccc(C(CC2CCCC2)C(=O)Nc2ccccn2)cc1C#N (centres undefined)	87 to 90
Cc1ccc(N(c2ccc(-c3ccccc3)cc2)c2ccc(C)c(C)c2)cc1	128 to 130
OC1CSC(Oc2cccc(-c3cncnc3)c2)C(O)C1O (centres undefined)	241
COc1ccc(C(=O)n2c3c(c4ccccc42)CC(C(=O)O)CC3)cc1 (centres undefined)	195
CSc1ccc(C2(C(C)=O)C=CC=CC2)cc1 (centres undefined)	182 to 184
COCCOc1ccc(C2=NCCNC2=O)cc1	130 to 132
CNC(Cc1ccc(C(F)(F)F)cc1N)c1sccc1C (centres undefined)	52 to 54
COc1cc2c(cc1N1CCN(C)CC1)N(C(=O)c1ccc(-c3ccc(-c4noc(C)n4)cc3C)cc1)CC2	213 to 214
CC(C)(C)c1cc(C(=O)NCc2ccc3c(Br)c(OC(Cc4ccccc4)C(=O)O)ccc3c2)cc(C(C)(C)C)c1 (centres undefined)	160 to 163
Oc1cc(O)c2cc(-c3ccc(F)cc3)oc2c1	189 to 190
Cc1cc2oc(=O)c3c(c2cc1Cl)CC(N1CC2CCCC(C2)C1)NC3 (centres undefined)	147 to 149
CC(CC#CC(C)(C)O[Si](C)(C)C(C)(C)C)C1=CCC2C3=CC=C4CC(O[Si](C)(C)C(C)(C)C(C)C)CCC4(C)C3CCC12C (centres undefined)	62 to 66
CC(C)n1nc(C#Cc2ccc(F)cc2)ccc1=O	106
O=C1CCC(c2ccncc2)=NN1	185 to 187
N#Cc1cccc(C2=Nc3ccc(C#CC4=CC(=O)CCC4)cc3NC(=O)C2)c1	110
C=CCNC(=O)C1CCc2cc(-c3ccccc3)ccc2O1 (centres undefined)	123 to 124

Compound	melting point [°C]
CCCCCCCCCCCCCCCCNc1ccc(C(=O)OC2COC(c3ccccc3)OC2)cc1 (centres undefined)	115 to 117
N#CC(=C=Nc1nc2ccccc2[nH]1)C#N	340 to 345
COc1ccc(-n2cccc2)c([N+](=O)[O-])c1	75.5 to 76.5
CN(C)CCn1c2ccccc2c(=NN=C2NCCS2)c2ccccc21	192 to 194
CC1(C)C(=O)Nc2ccc(-c3cc(F)cc(C#N)c3)cc21	231 to 232
CCCCCCCCCCCCCCCCCCNC(=O)OCC(CNS(=O)(=O)CCCCl)COC (centres undefined)	72 to 73
OCc1c(F)ccc(-c2ccc3nc(-c4ccc(Cl)cc4)cn3c2)c1F	214 to 216
Oc1cc(I)c(I)cc1O	116
S=c1sscc1-c1ccccc1	122 to 124
CC(C)Cc1n[nH]c2c1c(=O)n(-c1ccccc1)c1ncccc21	217 to 220
O=C(c1ccccc1)C1CCCc2cccnc21 (centres undefined)	205 to 207
CC1C(S(=O)(=O)c2ccccc2)CCCC12OCCO2 (centres undefined)	76 to 77
COc1ccncc1-c1nc2c(N[C@H]3[C@@H](C(N)=O)[C@@H]4C=C[C@H]3C4)c(Br)cnc2[nH]1	160
O=C([C@@H]1CCCN1C(=O)CC1CCc2ccccc2C1)N1CCCC1 (some centres undefined)	104 to 106
Nc1ccccc1C(=O)NCCCn1cncn1	96 to 98
CCCCC(Cc1ccc(OCCNC(=O)c2ccc(-c3ccc(CO)cc3)cc2)cc1)C(=O)O (centres undefined)	111 to 113
OC(CN1CCC(C(O)c2ccccc2)CC1)c1ccc(F)cc1 (centres undefined)	114 to 116
ClCc1cc2ccccc2c(-c2ccccc2)c1CCl	93
Cc1ccc(C(C#N)C(=O)C(=O)C(C#N)c2ccc(C)cc2)cc1 (centres undefined)	246 to 250
O=S(c1ccccc1)c1ncc(Cl)cn1 (centres undefined)	115
Cc1c(O)c(C)c2nc(COc3ccc(CC4SC(=O)NC4=O)cc3)n(C)c2c1C (centres undefined)	240 to 244
O=C(NCc1ccccn1)Nc1cc(N2CC(Cc3ccccc3)CC2=O)ccn1 (centres undefined)	215 to 220
CCCc1c(OCCCCCOc2cc(OCCCC(=O)OC)ccc2CCC(=O)OC)ccc2c1OCCC2=O	58 to 59
CCCCCN1CC[C@@H](c2ccc(Cl)cc2)[C@H](CO)C1 (racemic)	125 to 128
N#CCc1nnc(N)s1	163 to 164
CC(=O)OCC1OC(n2cnc3c(NN4CCCCC4)nc(N)nc32)C(OC(C)=O)C1OC(C)=O (centres undefined)	77 to 79
CCOP(=O)(OCC)OC(=Cc1nccn1C)c1ccccc1	111 to 114

Further lines, results first:

melting point [°C]	Compound
230 to 231	CCOC(=O)c1cn(-c2ncnn2C)c2cc(F)c(F)cc2c1=O
103 to 105	COc1cc(OC)c(SC(C)(C)CC(=O)O)c(OC)c1
186 to 188	CCn1c(=O)c(NC(=O)Nc2ccc(F)cc2F)c(-c2ccccc2Cl)c2cc(C)cc(C)c21
274 to 275	Cc1ccc(C=CC(=O)NNC(=O)CCc2cc(C(C)(C)C)c(O)c(C(C)(C)C)c2)cc1
194 to 197	CC(=O)Nc1cc(Oc2ccc3c(C(=O)Nc4ccc(CN5CCNCC5)c(C(F)(F)F)c4)cccc3c2)ncn1
140 to 143	Nc1c(SC(F)(F)F)c(C=O)nn1-c1c(Cl)cc(C(F)(F)F)cc1Cl
143 to 144	CCCCc1ccc2nc(NC(=O)c3csc(CNC(=O)OC(C)(C)C)n3)sc2c1
95 to 96	CN(C(=O)OC(C)(C)C)c1cc(Sc2cc(C(C)(C)C)c(O)c(C(C)(C)C)c2)ccc1N
166 to 168	Cc1c(NCCO)c(F)cc2c(=O)c(C(=O)O)cn(-c3cc(N)c(F)cc3F)c12
44 to 45	COC(=O)c1c(C)cccc1[N+](=O)[O-]
84 to 87	CC(C)COC(=O)N[C@@H](Cc1ccc2ccccc2c1)C(=O)CSCc1ccco1
56 to 58	CC(=O)CCc1ccc2ccccc2c1
172 to 173	Cc1cc(C(=O)O)ccc1-c1c(C)cccc1C
151 to 153	CC(C)NC(=S)NS(=O)(=O)c1ccc(S(C)(=O)=O)cc1N
120 to 121	CCCNc1nc(C#N)c(C#N)nc1-c1cccc(Cl)c1
121	C=C(Cc1ccc2c(c1)OCO2)C(=O)O
> 250	CC1CC(C)(C)C(CNc2ccnc3cc(Cl)ccc23)C1N (centres undefined)
105 to 107	CN(CCc1ccc(NC(=N)C(F)(F)F)cc1)Cc1ccccc1
190 to 192	CC(C)(N)CNc1ccc(C2=NNC(=O)CC2)cc1
104 to 106	CCOC(=O)C1=C(C)NC(COC(C)=O)=C(C(=O)OCC)C1c1ccccc1 (centres undefined)
168 to 169	CCN(CC)CC1CCCCN1CC(=O)N1c2cc(Cl)ccc2C(=O)Nc2cccnc21 (centres undefined)
157 to 158	CNc1nc(Cl)cc(Cl)n1
128 to 129	CC(=O)c1ccc2c(c1)C(=O)C1(CC1)S2
75	CC(Oc1cc(Oc2ccc(C(F)(F)F)cc2Cl)ccc1[N+](=O)[O-])C(=O)OCn1cccn1 (centres undefined)
173 to 174	Cc1cccc(C(=O)c2[nH]c3ccc(Cl)cc3c2CC(=O)O)c1

melting point [°C]	Compound
90 to 91	OC(=S)CCc1cccc(Br)c1
78 to 80	CCOC(=O)CC(=O)Cc1ccc(Br)cc1[N+](=O)[O-]
291 to 293	CC(C)SC1=N/C(=C\c2c[nH]c3ncc(Cl)cc23)C(=O)N1
262 to 264	CC(=O)Nc1c(C(=O)c2ccncc2)[nH]c2cc(Cl)ccc12
87 to 87.5	O=S(=O)(Cl)CCc1ccc(Cl)cc1
137 to 139	Cc1ncn(C(=O)Nc2cc(Cl)cc(Cl)c2)c1Cl
147 to 149	CCOC(=O)N(C)N(C)C(=S)Nc1cc(Cl)cc(Cl)c1
223 to 225	Cc1cn(-c2cc(NC(=O)c3ccc(C)c(C#Cc4ccc(NC5CCC5)nn4)c3)cc(C(F)(F)F)c2)cn1
213 to 215	O=C(O)C(=O)Nc1coc2ccc(Cl)cc2c1=O
69 to 71	N#Cc1c(Cl)ccc(F)c1Cl
246 to 249	COc1ccc(-c2ccnc3c(C(N)=O)ncn23)cc1
55 to 58	CN(C)S(=O)(=O)c1ccc(Br)cc1OC(F)(F)F
60 to 61.3	O=C(Nc1cc(-n2cccn2)nc(-c2ccco2)n1)OCC1CCCC1
274 to 275	COc1cccc2c(NCc3ccccc3C)nc(N)nc12
234 to 236	CN1CCN(c2cc(Cl)cc3c2c(=O)n(Cc2cccc(O)c2)c(=O)n3Cc2ccccc2)CC1
220 to 223	COC(=O)c1ccc(C(=O)Nc2c(C)c(C)c3c(c2C)C(c2ccc(C(C)C)cc2)C(C)(C)O3)cc1 (centres undefined)
46	FC(F)(F)c1nnc(Sc2ccc(Cl)c(Cl)c2)s1
138 to 139	C[C@@H]1CCC[C@H](C)N1CCNc1ccnc2cc(Cl)ccc12
115 to 117	COC(=O)c1cc(NC(=O)C2=C(C)OCCS2)ccc1Cl
130 to 133	O=[N+]([O-])c1cc(Cl)ccc1N1CCc2cc(Cl)ccc21
64 to 66	CC(=O)OCC1Cc2cc(I)ccc2N1 (centres undefined)
93 to 95	COc1ccc(CNC(=O)c2nccnc2N)cc1
271 to 273	O=C(O)c1c[nH]c2nc(Cl)ccc2c1=O
139 to 142	Cc1cc(Br)ccc1NC(=O)CC(=O)NCCO
239 to 245	CN(C)C=CC(=O)c1c[nH]c2ccccc12
